Where two headings read alike, the source gives them in different places. No end group written: not given here.
Tests used:
E. coli = assay: MIC of peptides against uropathogenic microorganisms; format: cell-based, Escherichia coli HU734; details: bactericidal if less than 0.1% of original bacteria remained viable
Staph. epidermidis = assay: MIC of peptides against uropathogenic microorganisms; format: cell-based, Staphylococcus epidermidis 1938
Kl. pneumoniae = assay: as above; format: cell-based; details: K. pneumoniae; bactericidal if less than 0.1% of original bacteria remained viable
Ps. aeruginosa = assay: as above; format: cell-based, Pseudomonas aeruginosa AK1; details: P. aeruginosa; bactericidal if less than 0.1% of original bacteria remained viable

Description for L. fermentum B-54: (§1) Mean values obtained from three independent experiments are shown.
(§2) Action of the peptide was considered bactericidal if less than 0.1% of original number of bacteria remained viable following the treatment. Resistant organisms were also plated from the 100 μmol 1^−1 well to confirm presence of any inhibition.
Description for L. fermentum RC-14: as §1, §2
Description for L. plantarum RC-20: as §1, §2
Description for L. rhamnosus 81: as §1, §2
Description for L. rhamnosus GR-1: as §1, §2

Row | Substance | mode of action (E. coli) | susceptibility of strain to peptide (L. rhamnosus GR-1; L. rhamnosus GR-1, highest concentration 100 μmol 1^−1) | MIC (Staph. epidermidis) [μmol 1^−1 M] | mode of action (Kl. pneumoniae) | mode of action (Ps. aeruginosa) | susceptibility of strain to peptide (L. rhamnosus 81; L. rhamnosus 81, highest concentration 100 μmol 1^−1) | mode of action (L. fermentum B-54; L. fermentum B-54) | MIC (L. fermentum B-54; L. fermentum B-54 as indicator organism) [µM] | susceptibility of strain to peptide (L. plantarum RC-20; L. plantarum RC-20, highest concentration 100 μmol 1^−1) | susceptibility of strain to peptide (L. fermentum RC-14; L. fermentum RC-14, highest concentration 100 μmol 1^−1) | MIC (L. rhamnosus GR-1) [µM] | MIC (L. rhamnosus 81) [µM] | MIC (L. fermentum B-54) [µM] | MIC (L. plantarum RC-20) [µM] | MIC (L. fermentum RC-14) [µM]
1 | FALL-39 (FALLGDFFRKSKEKIGKEFKRIVQRIKDFLRNLVPRTES; Antibacterial peptide FALL-39; UniProt P49913 132-170, looked up) | bactericidal | resistant | >100 | bacteriostatic | bacteriostatic | resistant | bacteriostatically | 100 | resistant | resistant | – | – | – | – | –
2 | SWLSKTAKKLENSAKKRISEGIAIAIQGGPR [Cecropin P1] | bacteriocidally | – | >100 | bacteriocidally | bacteriocidally | – | – | – | – | – | > 100 | > 100 | > 100 | > 100 | > 100

Source: patent US20030118571A1, “Oral administration of lactobacillus for the maintenance of health in women during pregnancy and at other life stages, to reduce the risk of urogenital diseases” (priority 1999, published 2003)
